Data: patent US12440439B2, “Mesoporous sponge spicule and methods thereof” (Xiamen University, priority 2019, dated 2025)

Test: Transdermal penetration enhancement experiments in vitro (Franz diffusion transdermal device, tape peeling, microplate reader)
Format: in vitro ADME, pig
Conditions: transdermal for 16 h
Experimental: Among them, delivery system groups of the second group and the third group are saturated 30% ethanol solutions of the Coumarin 6, and delivery volumes are […].
The aforementioned layers are divided into groups, soaked in 4 mL of a mixture of the phosphate buffer solution and methanol (a volume ratio is 1:1) to respectively extract the Coumarin 6 in a 1st layer of stratum corneum (SC1), 2nd-5th layers of stratum corneum (SC2), 6th-10th layers of stratum corneum (SC3), the epidermal layer (Epi), and the dermal layer (Der) at 200 r/min (revolutions per minutes (rpm)) at room temperature (e.g., 20-30° C.).

Content of the Coumarin 6 in SC1 (1st layer of stratum corneum): 0.005 ± 0.001 μg/1.77 cm^2
Content of the Coumarin 6 in SC2 (2nd-5th layers of stratum corneum): 0.009 ± 0.002 μg/1.77 cm^2
Content of the Coumarin 6 in SC3 (6th-10th layers of stratum corneum): 0.019 ± 0.003 μg/1.77 cm^2
Content of the Coumarin 6, Total (all skin layers and receptor compartment): 0.199 ± 0.047 μg/1.77 cm^2
Content of the Coumarin 6 in Der (dermal layer): 0.015 ± 0.011 μg/1.77 cm^2
Content of the Coumarin 6 in Epi (epidermal layer): 0.021 ± 0.007 μg/1.77 cm^2
Content of the Coumarin 6 in Rec (receptor compartment): 0.130 ± 0.043 μg/1.77 cm^2
SMILES: CCN(CC)c1ccc2cc(-c3nc4ccccc4s3)c(=O)oc2c1 [Control, Coumarin 6]
